Where a name gives a salt, the structure may show the parent alone.

The term IC50 denotes the concentration that gives 50% inhibition.

The target of one test is T1, Serine Palmitoyl Transferase (SPT); microsomes from HEK 293 cells stably transfected with human LCB2 subunit of SPT (Homo sapiens, UniProt O15270).
T1 construct: expressed in transfected cells; host or cells: HEK 293 cells stably transfected with LCB2; microsomal fraction
T1 sequence (O15270 1-562): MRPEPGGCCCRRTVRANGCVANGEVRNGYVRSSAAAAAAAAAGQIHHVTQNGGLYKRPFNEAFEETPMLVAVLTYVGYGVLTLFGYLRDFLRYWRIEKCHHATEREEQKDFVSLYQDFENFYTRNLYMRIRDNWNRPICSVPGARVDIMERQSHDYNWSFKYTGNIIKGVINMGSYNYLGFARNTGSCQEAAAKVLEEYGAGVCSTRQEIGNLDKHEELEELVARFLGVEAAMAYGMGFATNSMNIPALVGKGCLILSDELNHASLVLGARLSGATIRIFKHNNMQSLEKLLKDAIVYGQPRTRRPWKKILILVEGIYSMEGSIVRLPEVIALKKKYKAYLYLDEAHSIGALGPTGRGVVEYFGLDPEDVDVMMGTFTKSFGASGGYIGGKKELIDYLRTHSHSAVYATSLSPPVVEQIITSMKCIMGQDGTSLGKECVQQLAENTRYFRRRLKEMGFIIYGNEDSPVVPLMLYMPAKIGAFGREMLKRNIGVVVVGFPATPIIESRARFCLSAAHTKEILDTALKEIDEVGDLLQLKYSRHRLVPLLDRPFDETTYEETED
T1 sequence (O15269 1-473 partner): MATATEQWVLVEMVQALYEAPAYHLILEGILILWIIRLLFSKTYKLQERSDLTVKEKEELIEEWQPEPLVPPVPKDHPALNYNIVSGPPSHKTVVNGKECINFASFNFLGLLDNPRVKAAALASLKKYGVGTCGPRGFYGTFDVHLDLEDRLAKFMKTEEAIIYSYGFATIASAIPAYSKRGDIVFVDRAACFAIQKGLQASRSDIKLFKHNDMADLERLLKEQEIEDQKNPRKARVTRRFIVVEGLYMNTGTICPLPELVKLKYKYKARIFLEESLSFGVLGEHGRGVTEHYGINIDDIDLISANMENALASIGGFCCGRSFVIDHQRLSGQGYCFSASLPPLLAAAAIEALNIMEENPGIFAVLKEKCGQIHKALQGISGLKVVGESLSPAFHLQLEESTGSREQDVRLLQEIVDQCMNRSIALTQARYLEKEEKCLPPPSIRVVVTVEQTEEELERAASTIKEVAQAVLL
T1 sequence (Q969W0 1-71 partner): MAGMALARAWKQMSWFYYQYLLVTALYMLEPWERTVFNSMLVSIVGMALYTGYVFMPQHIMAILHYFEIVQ
Nature of the test: SPT flashplate assay. The note with it: SPTISF IC50 (nM). The test is classed as biochemical.
`O=C(CN1CCC(n2c(=O)[nH]c3cc(-c4noc(=O)[nH]4)ccc32)CC1)c1ccc(Cl)cc1` [Example 37, 1-{1-[2-(4-chlorophenyl)-2-oxoethyl]piperidin-4-yl}-5-(5-oxo-4,5-dihydro-1,2,4-oxadiazol-3-yl)-1,3-dihydro-2H-benzimidazol-2-one] gave an IC50 of 1.68 nM.

`CCc1ccc(C(=O)CN2CCC(n3c(=O)[nH]c4cc(C(=O)NC)c(F)cc43)CC2)cc1` [Example 9, 1-[2-(4-ethylphenyl)-2-oxoethyl]-4-{6-fluoro-5-[(methylamino)carbonyl]-2-oxo-2,3-dihydro-1H-benzimidazol-1-yl}piperidinium chloride]: inhibition was half-maximal at 6.2 nM (IC50).

Still in this test, the particulars now being: microsomes of HEK 293 LCB2 cells, 3H-serine and palmitoyl CoA, phospholipid coated flashplate, 18-24 hours at room temperature; read-out: SPTISF IC50.
Regarding `C=C1CCN(C(=O)CN2CCC(n3c(=O)[nH]c4cc(C(=O)NC)c(F)cc43)CC2)CC1` [Example 29, 6-fluoro-N-methyl-1-{1-[2-(4-methylonepiperidin-1-yl)-2-oxoethyl]piperidin-4-yl}-2-oxo-2,3-dihydro-1H-benzimidazole-5-carboxamide], the IC50 was found to be 9.4 nM. As for `CNC(=O)c1cc2[nH]c(=O)n(C3CCN(CC(=O)C4(C)CCCCC4)CC3)c2cc1F` [Example 17, 6-fluoro-N-methyl-1-{1-[2-(1-methylcyclohexyl)-2-oxoethyl]piperidin-4-yl}-2-oxo-2,3-dihydro-1H-benzimidazole-5-carboxamide], the IC50 amounted to 7.14 nM. In the case of `CCNC(=O)c1ccc2c(c1)n(C)c(=O)n2C1CCN(CC(=O)N2CCC(C)(C)CC2)CC1` [Example 33, 1-[2-(4,4-dimethylpiperidin-1-yl)-2-oxoethyl]-4-{5-[(ethylamino)carbonyl]-3-methyl-2-oxo-2,3-dihydro-1H-benzimidazol-1-yl}piperidinium chloride], the IC50 was found to be 59.1 nM. Turning to `CC1(C)CCN(C(=O)CN2CCC(n3c(=O)[nH]c4cc(S(C)(=O)=O)ccc43)CC2)CC1` [Example 39, 1-{1-[2-(4,4-dimethylpiperidin-1-yl)-2-oxoethyl]piperidin-4-yl}-5-(methylsulfonyl)-1,3-dihydro-2H-benzimidazol-2-one], the IC50 amounted to 47.9 nM. Still for that read-out and setting: under `CNC(=O)c1cc2[nH]c(=O)n(C3CCN(CC(=O)N4CCC(C)(OC)CC4)CC3)c2cc1F` [Example 32, 6-fluoro-1-{1-[2-(4-methoxy-4-methylpiperidin-1-yl)-2-oxoethyl]piperidin-4-yl}-N-methyl-2-oxo-2,3-dihydro-1H-benzimidazole-5-carboxamide] stands 26 nM. Same read-out and setting: as for `CC1(C)CCN(C(=O)CN2CCC(n3c(=O)[nH]c4cc(S(C)(=O)=O)ccc43)CC2)CC1` [Example 40, 1-{1-[2-(4,4-dimethylpiperidin-1-yl)-2-oxoethyl]piperidin-4-yl}-5-(methylsulfonyl)-1,3-dihydro-2H-benzimidazol-2-one hydrochloride], the figure is 12.9 nM; as for `CNC(=O)c1cc2[nH]c(=O)n(C3CCN(CC(=O)C4CCC(C)(OC)CC4)CC3)c2cc1F` (stereo not shown) [Example 16, 6-fluoro-1-{1-[2-(4-methoxy-4-methylcyclohexyl)-2-oxoethyl]piperidin-4-yl}-N-methyl-2-oxo-2,3-dihydro-1H-benzimidazole-5-carboxamide], 53 nM. Take `CS(=O)(=O)c1ccc2c(c1)[nH]c(=O)n2C1CCN(CC(=O)C2CCCCC2)CC1` [Example 41, 1-[1-(2-cyclohexyl-2-oxoethyl)piperidin-4-yl]-5-(methylsulfonyl)-1,3-dihydro-2H-benzimidazol-2-one]: the IC50 came to 365 nM.

The record behind these values is patent publication US20080287479A1, “INHIBITORS OF SERINE PALMITOYLTRANSFERASE” (Pfizer Inc, priority 2006, published 2008).
